Key:
[1] = tested on: antibodies in sera from SARS patients (sera 1a, 1b, 2, 6, 37, 62, London, SARS-yellow, SARS-green); assay type: binding, human; design: Binding of serum 6 to linear peptides of protein X1 of SARS-CoV Urbani / Binding of serum 37 to linear peptides of protein X1 of SARS-CoV Urbani / Binding of serum 6 to looped/cyclic peptide (PEPSCAN-ELISA) / Binding of serum 37 to looped/cyclic peptide (PEPSCAN-ELISA) / Binding of serum 37 to looped/cyclic peptides of protein X1 of SARS-CoV Urbani / Binding of serum 6 to linear peptides of protein X2 / Binding of serum 37 to linear peptides of protein X2 / Binding of serum 37 to looped/cyclic peptides of protein X2 of SARS-CoV Urbani / Binding of serum 6 to linear peptides of protein M of SARS-CoV Urbani / Binding of serum 37 to linear peptides of protein M of SARS-CoV Urbani / Binding of serum 6 to looped/cyclic peptides of protein M of SARS-CoV Urbani / Binding of serum 37 to looped/cyclic peptides of protein M of SARS-CoV Urbani / Binding of serum 6 to linear peptides of protein X3 of SARS-CoV Urbani / Binding of serum 37 to linear peptides of protein X3 of SARS-CoV Urbani / Binding of serum 37 to looped/cyclic peptides of protein X3 of SARS-CoV Urbani / Binding of serum 6 to linear peptides of protein X4 of SARS-CoV Urbani / Binding of serum 37 to linear peptides of protein X4 of SARS-CoV Urbani / Binding of serum 37 to looped/cyclic peptides of protein X4 of SARS-CoV Urbani / Binding of serum 6 to linear peptides of protein X5 of SARS-CoV Urbani / Binding of serum 37 to linear peptides of protein X5 of SARS-CoV Urbani / Binding of serum 37 to looped/cyclic peptides of protein X5 of SARS-CoV Urbani / Binding of serum 6 to linear peptides of protein N of SARS-CoV Urbani / Binding of serum 37 to linear peptides of protein N of SARS-CoV Urbani / Binding of serum 6 to linear peptide (PEPSCAN-ELISA) / Binding of serum 1a to looped/cyclic peptides of protein N of SARS-CoV Urbani / Binding of serum 1b to looped/cyclic peptides of protein N of SARS-CoV Urbani / Binding of serum 2 to looped/cyclic peptides of protein N of SARS-CoV Urbani / Binding of serum 6 to looped/cyclic peptides of protein N of SARS-CoV Urbani / Binding of serum 37 to looped/cyclic peptides of protein N of SARS-CoV Urbani / Binding of serum 62 to looped/cyclic peptides of protein N of SARS-CoV Urbani / Binding of serum London to looped/cyclic peptides of protein N of SARS-CoV Urbani / Binding of serum SARS-green to looped/cyclic peptides of protein N of SARS-CoV Urbani: unit not given here
[2] = tested on: control sera (pooled serum of ten healthy LUMC hospital workers; commercial negative donor pooled serum from the Dutch bloodbank); assay type: binding, human; design: Binding of Control serum LUMC to linear peptides / Binding of Control serum Blood-bank to linear peptides / Binding of Control serum LUMC to looped peptides / Binding of Control Serum Blood-Bank to Looped peptides / Binding of Control serum LUMC to linear peptides of the protein M of SARS-CoV Urbani / Binding of Control serum Blood-bank to linear peptides of the protein M of SARS-CoV Urbani / Binding of Control serum LUMC to looped peptides of the protein M of SARS-CoV Urbani / Binding of Control Serum Blood-Bank to Looped peptides of the protein M of SARS-CoV Urbani: unit not given here
[3] = tested on: rabbit serum obtained by immunizing a rabbit with the SARS-CoV strain Frankfurt 1; assay type: binding; design: Binding of a rabbit serum to linear peptides / Binding of a rabbit serum to looped peptides / Rabbit serum linear peptides / Rabbit serum looped peptides / Binding of a rabbit serum to linear peptides of protein N of SARS-CoV Urbani (Rabbit serum linear peptides) / Binding of a rabbit serum to looped/cyclic peptides of protein N of SARS-CoV Urbani (Rabbit serum looped peptides): unit not given here

FRLFARTRSMWSFNP
Binding of serum 1a to linear peptides of protein M of SARS-CoV Urbani [1]: 0.8 | Binding of serum 1a to looped/cyclic peptides of protein M of SARS-CoV Urbani [1]: 0.7 | Binding of serum 1b to linear peptides of protein M of SARS-CoV Urbani [1]: 0.5 | Binding of serum 1b to looped/cyclic peptides of protein M of SARS-CoV Urbani [1]: 0.5 | Binding of serum 2 to linear peptides of protein M of SARS-CoV Urbani [1]: 0.6 | Binding of serum 2 to looped/cyclic peptides of protein M of SARS-CoV Urbani [1]: 0.6 | Binding of serum 6 to linear peptides of protein M of SARS-CoV Urbani [1]: 0.5 | Binding of serum 6 to looped/cyclic peptides of protein M of SARS-CoV Urbani [1]: 0.8 | Binding of serum 37 to linear peptides of protein M of SARS-CoV Urbani [1]: 0.5 | Binding of serum 37 to looped/cyclic peptides of protein M of SARS-CoV Urbani [1]: 0.6 | Binding of serum 62 to linear peptides of protein M of SARS-CoV Urbani [1]: 0.5 | Binding of serum 62 to looped/cyclic peptides of protein M of SARS-CoV Urbani [1]: 0.6 | Binding of serum London to linear peptides of protein M of SARS-CoV Urbani [1]: 0.4 | Binding of serum London to looped/cyclic peptides of protein M of SARS-CoV Urbani [1]: 0.3 | Binding of serum SARS-green to linear peptides of protein M of SARS-CoV Urbani [1]: 0.6 | Binding of serum SARS-green to looped/cyclic peptides of protein M of SARS-CoV Urbani [1]: 0.3 | Binding of serum SARS-yellow to linear peptides of protein M of SARS-CoV Urbani [1]: 0.2 | Binding of serum SARS-yellow to looped/cyclic peptides of protein M of SARS-CoV Urbani [1]: 0.5 | Binding of Control Serum Blood-Bank to Looped peptides of the protein M of SARS-CoV Urbani [2]: 0.8 | Binding of Control serum Blood-bank to linear peptides of the protein M of SARS-CoV Urbani [2]: 0.8 | Binding of Control serum LUMC to linear peptides of the protein M of SARS-CoV Urbani [2]: 0.8 | Binding of Control serum LUMC to looped peptides of the protein M of SARS-CoV Urbani [2]: 0.6 | Rabbit serum linear peptides [3]: 0.2 | Rabbit serum looped peptides [3]: 0.2

FTEVYYQLESTQITT
Binding of serum 1a to linear peptides of protein X1 of SARS-CoV Urbani [1]: 0.8 | Binding of serum 1a to looped/cyclic peptides of protein X1 of SARS-CoV Urbani [1]: 0.5 | Binding of serum 1b to linear peptides of protein X1 of SARS-CoV Urbani [1]: 0.7 | Binding of serum 1b to looped/cyclic peptides of protein X1 of SARS-CoV Urbani [1]: 0.5 | Binding of serum 2 to linear peptides of protein X1 of SARS-CoV Urbani [1]: 0.5 | Binding of serum 2 to looped/cyclic peptides of protein X1 of SARS-CoV Urbani [1]: 0.4 | Binding of serum 6 to linear peptides of protein X1 of SARS-CoV Urbani [1]: 0.5 | Binding of serum 6 to looped/cyclic peptides of protein X1 of SARS-CoV Urbani [1]: 0.4 | Binding of serum 37 to linear peptides of protein X1 of SARS-CoV Urbani [1]: 0.7 | Binding of serum 37 to looped/cyclic peptides of protein X1 of SARS-CoV Urbani [1]: 0.7 | Binding of serum 62 to linear peptides of protein X1 of SARS-CoV Urbani [1]: 0.7 | Binding of serum 62 to looped/cyclic peptides of protein X1 of SARS-CoV Urbani [1]: 0.5 | Binding of serum London to linear peptides of protein X1 of SARS-CoV Urbani [1]: 0.3 | Binding of serum London to looped/cyclic peptides of protein X1 of SARS-CoV Urbani [1]: 0.2 | Binding of serum SARS-green to linear peptides of protein X1 of SARS-CoV Urbani [1]: 0.5 | Binding of serum SARS-green to looped/cyclic peptides of protein X1 of SARS-CoV Urbani [1]: 0.3 | Binding of serum SARS-yellow to linear peptides of protein X1 of SARS-CoV Urbani [1]: 0.5 | Binding of serum SARS-yellow to looped/cyclic peptides of protein X1 of SARS-CoV Urbani [1]: 0.4 | Binding of Control Serum Blood-Bank to Looped peptides [2]: 0.6 | Binding of Control serum Blood-bank to linear peptides [2]: 0.6 | Binding of Control serum LUMC to linear peptides [2]: 0.5 | Binding of Control serum LUMC to looped peptides [2]: 0.6 | Binding of a rabbit serum to linear peptides [3]: 0.1 | Binding of a rabbit serum to looped peptides [3]: 0.5

FTSCELYHYQECVRG
Binding of serum 1a to linear peptides of protein X4 of SARS-CoV Urbani [1]: 0.8 | Binding of serum 1a to looped/cyclic peptides of protein X4 of SARS-CoV Urbani [1]: 0.8 | Binding of serum 1b to linear peptides of protein X4 of SARS-CoV Urbani [1]: 0.7 | Binding of serum 1b to looped/cyclic peptides of protein X4 of SARS-CoV Urbani [1]: 0.7 | Binding of serum 2 to linear peptides of protein X4 of SARS-CoV Urbani [1]: 0.5 | Binding of serum 2 to looped/cyclic peptides of protein X4 of SARS-CoV Urbani [1]: 0.6 | Binding of serum 6 to linear peptides of protein X4 of SARS-CoV Urbani [1]: 0.9 | Binding of serum 6 to looped/cyclic peptides of protein X4 of SARS-CoV Urbani [1]: 0.6 | Binding of serum 37 to linear peptides of protein X4 of SARS-CoV Urbani [1]: 0.8 | Binding of serum 37 to looped/cyclic peptides of protein X4 of SARS-CoV Urbani [1]: 0.8 | Binding of serum 62 to linear peptides of protein X4 of SARS-CoV Urbani [1]: 0.8 | Binding of serum 62 to looped/cyclic peptides of protein X4 of SARS-CoV Urbani [1]: 0.7 | Binding of serum London to linear peptides of protein X4 of SARS-CoV Urbani [1]: 0.9 | Binding of serum London to looped/cyclic peptides of protein X4 of SARS-CoV Urbani [1]: 0.3 | Binding of serum SARS-green to linear peptides of protein X4 of SARS-CoV Urbani [1]: 0.5 | Binding of serum SARS-green to looped/cyclic peptides of protein X4 of SARS-CoV Urbani [1]: 0.6 | Binding of serum SARS-yellow to linear peptides of protein X4 of SARS-CoV Urbani [1]: 0.3 | Binding of serum SARS-yellow to looped/cyclic peptides of protein X4 of SARS-CoV Urbani [1]: 0.5 | Binding of Control Serum Blood-Bank to Looped peptides [2]: 0.8 | Binding of Control serum Blood-bank to linear peptides [2]: 0.7 | Binding of Control serum LUMC to linear peptides [2]: 0.7 | Binding of Control serum LUMC to looped peptides [2]: 0.8 | Rabbit serum linear peptides [3]: 0.4 | Rabbit serum looped peptides [3]: 0.3

FTTSLSLHKLLQTLV
Binding of serum 1a to linear peptides of protein X2 [1]: 0.5 | Binding of serum 1a to looped/cyclic peptides of protein X2 of SARS-CoV Urbani [1]: 2.1 | Binding of serum 1b to linear peptides of protein X2 [1]: 0.5 | Binding of serum 1b to looped/cyclic peptides of protein X2 of SARS-CoV Urbani [1]: 2.5 | Binding of serum 2 to linear peptides of protein X2 [1]: 0.4 | Binding of serum 2 to looped/cyclic peptides of protein X2 of SARS-CoV Urbani [1]: 1.2 | Binding of serum 6 to linear peptides of protein X2 [1]: 0.6 | Binding of serum 6 to looped/cyclic peptides of protein X2 of SARS-CoV Urbani [1]: 0.8 | Binding of serum 37 to linear peptides of protein X2 [1]: 0.5 | Binding of serum 37 to looped/cyclic peptides of protein X2 of SARS-CoV Urbani [1]: 1.3 | Binding of serum 62 to linear peptides of protein X2 [1]: 0.5 | Binding of serum 62 to looped/cyclic peptides of protein X2 of SARS-CoV Urbani [1]: 1.7 | Binding of serum London to linear peptides of protein X2 [1]: 0.4 | Binding of serum London to looped/cyclic peptides of protein X2 of SARS-CoV Urbani [1]: 1.0 | Binding of serum SARS-green to linear peptides of protein X2 [1]: 0.5 | Binding of serum SARS-green to looped/cyclic peptides of protein X2 of SARS-CoV Urbani [1]: 1.7 | Binding of serum SARS-yellow to linear peptides of protein X2 [1]: 0.4 | Binding of serum SARS-yellow to looped/cyclic peptides of protein X2 of SARS-CoV Urbani [1]: 1.3 | Binding of Control Serum Blood-Bank to Looped peptides [2]: 2.0 | Binding of Control serum Blood-bank to linear peptides [2]: 0.6 | Binding of Control serum LUMC to linear peptides [2]: 0.5 | Binding of Control serum LUMC to looped peptides [2]: 1.6 | Binding of a rabbit serum to linear peptides [3]: 0.1 | Binding of a rabbit serum to looped peptides [3]: 0.9
